# From patent US10787650B2, “Artificial bioluminescent enzymes” (NATIONAL INSTITUTE OF ADVANCED INDUSTRIAL SCIENCE AND …, priority 2015, dated 2020)
# “Also recorded” adds a separate entry of the source.
# Columns and labels:
# ALuc16 [1] = assay: Metal cation-driven optical intensities of ALuc16 (purified enzyme); type: biochemical
# Protocol: The metal cation-driven optical properties were estimated with ALuc16 (FIG. 6). A metal cation-free sample of ALuc16 was prepared beforehand as follows: we first generated a DNA construct of ALuc16 carrying a Strep-II tag at the C-terminus via PCR. The construct was then cloned into a pOPTHM vector (providing a cleavable N-terminal His6-MBP tag), and expressed in the bacterial strain Shuffle T7 Express (New England Biolabs) with 0.3 mM IPTG induction. […] The lysate was centrifuged at 18,000 rpm for 40 minutes, and then the supernatant was passed over a 5 mL HisTrap HP column (GE Healthcare). […] The eluted sample was dialyzed to a metal-cation-free Tris-HCl buffer (0.05 M, pH 8.2) at 4° C. for 24 hours, and finally adjusted to a concentration of 1 mg/ml by dilution. […] Meanwhile, the corresponding substrate solution carrying nCTZ (Promega) was diluted 100-fold with the cation-free Tris-HCl buffer (Solution B). 50 μL of Solution B was simultaneously injected into Solution A in the 96-well plate with a multichannel micropipette (Gilson). The microplate was immediately moved to an image analyzer (LAS-4000, FujiFilm) equipped with a cooled charge-coupled device (CCD) camera, and the optical intensities were simultaneously estimated in a precision mode. The measurements were conducted in triplicate (n=3). The optical images were analyzed with Multi Gauge V3.2 (FujiFilm). […] The experiment was conducted by the same method as that of FIG. 6. In the inset, the optical image taken with LAS-4000 (FujiFilm) is shown.
# ALuc16 [2] = assay: Circular dichroism (CD) measurement of metal cation-mixed ALuc16
# Protocol: Circular dichroism (CD) measurement was further conducted for reasoning the cation-driven degradation of ALuc16 activities (FIG. 9). Samples were prepared by mixing varying concentrations of Pb(II) or Al(III) with column-purified and dialyzed ALuc16, and were measured with a CD spectrometer (JASCO, Japan) after preparation.
# ALuc16 [3] = assay: Metal cation-driven variance of bioluminescence spectra of ALuc16; type: biochemical; settings: 100 μg/mL cation
# Protocol: The corresponding bioluminescence spectra (FIG. 6(B)) were also measured using the same method as that of FIG. 6(A). In a 200 μL PCR tube, 50 μL of the mixture of ALuc16 and a metal cation (Ca(II), Fe(III), Ni(II), Zn(II), Mg(II), or Cr(VI); concentration: 100 μg/mL) in the metal-cation-free Tris-HCl buffer (Solution A) was further mixed with 10 μL of an nCTZ solution (Solution B). The tube was immediately moved into the chamber of a precision spectrophotometer (AB-1850, ATTO) (FIG. 6(B)), and the consequent spectra were taken in an integration of 30 seconds.
# molecular strain sensor = assay: Metal ion effects on luminescence of the purified molecular strain sensor; type: biochemical; settings: within 1 minute after substrate addition
# Protocol: For this experiment, the concentration of the purified molecular strain sensor was adjusted to 0.1 mg/mL by dilution in a Tris-HCl buffer (pH 8.2). Rapamycin was added to the molecular strain sensor and the final concentration was adjusted to […]. After that, the resultant was diluted with metal ion-containing Tris-HCl buffer (pH 8.2) to make a 0.01 mg/mL molecular strain sensor solution. At this time, the final concentration of the metal ion added was 10 μg/mL. The solution was transferred to a 96-well microplate, and, while the substrate solution was added from a microinjector, luminescence intensities were measured with or without a metal ion.
# The luminescence stability of the luminescent probe dependent on different metal ion concentrations was studied by a similar technique (FIG. 23). The substrate solution was added from a microinjector in the same manner as above, and then changes in luminescence intensity over 1 minute were measured.
# ALuc16 [4] = assay: Cation-driven long-term stability of optical intensities of ALuc16; type: biochemical
# Protocol: The long-term stability of optical intensities was estimated by the same method as that of FIG. 6(A) (FIG. 8(A)). The microplate was placed in the chamber of LAS-4000, and the optical intensities were monitored every 5 minutes, after substrate injection, for a duration of 60 minutes.
# Fridericia luciferase = settings: cited from earlier work
# [5] = Enzymatic activity confirmation: temporal stability in luminescence; type: biochemical, African monkey; settings: compared to existing ALuc or conventional copepod luciferases
# Protocol: The enzymatic activity of ALuc may be examined according to the following method. First, using a known lipid reagent for gene introduction, an expression vector encoding ALuc is introduced into African monkey-derived COS-7 cells. As a control, an expression vector having a known GLuc without any mutation is also introduced into the cells in the same manner. At a predetermined time (from 10 hours to 20 hours, for example, 16 hours) after the introduction of the vector, a cell lysate is prepared using a known cell lysis reagent.
# After that, the cell lysate is mixed with a known substrate solution containing coelenterazine, and its color intensity, temporal stability in luminescence, and the like are measured.
# The luminescence intensity may be found by measuring the intensity at a specific wavelength using a conventional luminescence spectrophotometer after addition of a known substrate. By performing the measurement every minute, the temporal stability in luminescence can be evaluated based on the temporal change in luminescence. In order to measure a shift to a longer wavelength, scanning of the entire wavelength is required.
# [6] = Luminescence activity of novel artificial bioluminescent enzymes (COS-7 cell lysate); type: biochemical, African green monkey; settings: COS-7 lysate, native coelenterazine
# Protocol: African green monkey kidney-derived COS-7 cells were cultured using a 96-well microplate. The COS-7 cells were grown until occupying 90% of the bottom-surface area of the culture plate, and, as shown in FIG. 19 and FIG. 20, were each transiently transfected with a pcDNA 3.1(+) vector (Invitrogen) encoding each luminescent enzyme with a lipofection reagent (TransIT-LT1, Mirus). After that, the cells were further cultured for about 1 day. After the culture, cell lysates were prepared using a cell lysis agent (Lysis buffer, Promega), and 5 μL each of the cell lysates was taken from each well and transferred to a 96-well microplate for measurement. An assay buffer (50 μL) containing native coelenterazine was simultaneously added to each well using a multichannel pipette. Immediately after the addition of the assay buffer, the microplate was moved into the black box of an image analyzer (LAS-4000, FujiFilm), and luminescence images were measured with a CCD camera (FIG. 19 and FIG. 20).
molecule,measurement,setting,value
[Cl][Pb][Cl] [Pb(II)],concentration by which the optical intensity was quickly decreased,"ALuc16 [1]; Tris-HCl, pH 8.2",1 µg/mL
same,detection limit,ALuc16 [1]; dose-response of ALuc16 activities,around 0.4 μg/mL
same,effect on optical intensities (activities) of ALuc16,"ALuc16 [1]; metal cation-free Tris-HCl buffer (pH 8.2, 0.05 M), nCTZ",suppress; also recorded: quickly inhibited
same,levels that showed basal noise CD spectra,ALuc16 [2],higher than 1 μg/mL
same,"effect on structure of ALuc16 (CD spectra, 222 nm)",ALuc16 [2]; varying cation concentrations,destroy the tertiary structure of ALuc16; also recorded: the structure of ALuc16 is denatured
[Cl][Ni][Cl] [Ni(II)],red shift of the bioluminescence spectrum,ALuc16 [3],4 nm
[Ca+2].[Cl-].[Cl-] [Ca(II)],effect of increasing concentration on overall luminescence intensity,molecular strain sensor,reduces an overall luminescence intensity
same,effect of increasing concentration on S/N ratio,molecular strain sensor; with/without rapamycin,improves an S/N ratio
same,effect on long-term stability of bioluminescence intensities,ALuc16 [4]; 60 minutes after substrate injection,prolonged the bioluminescence intensities in a concentration-dependent manner
same,optical intensity retained,ALuc16 [4]; after 60 minutes,4%
same,initial optical intensity sustained,ALuc16 [4]; for 13 minutes after nCTZ injection,60%
same,effect on activities of Fridericia luciferase,Fridericia luciferase,elevate
same,blue shift of the bioluminescence spectrum,ALuc16 [3],2 nm
"ALuc45: artificial luciferase, SEQ ID NO: 5 (protein) MMGIKVLFALVCLALVQAKPTEDEDEDDIVDVVGNFWAIGVDNDRDFTISADRGKLPGKKLPKEVLIEIEANAKKAGCTRGCLICLSKIKCTAKMKKWLPGRCHSYEGDKDTGQGGIGEPIVDAPEIPGFKDLTPMEQFIAQVDLCADCTTGCLKGLANVKCSALLKKWLPDRCASFADKIQKEVDNIKGLAGS",luminescence stability,[5],remarkably stable luminescence signal
same,"luminescence intensities as compared to conventional ALucs (e.g., ALuc16 and ALuc30)",[6],even stronger luminescence intensities
